# Columns and labels:
# [1] = in vitro; conditions: microsomes, pH 7.4
# Protocol: To examine the in vitro metabolic stability of the test compounds in liver microsomes of different species, representative compounds were selected, and their stability was evaluated by measuring the concentration of the test compounds in the incubation system using LC/MS/MS and calculating their intrinsic clearance in the microsome system.
# The method is specifically as follows: each compound was first dissolved in DMSO to prepare a 200 μM working solution and added to the system solution at the time of testing to form a solution with a final concentration of 1 μM.
# The microsomes were stored in a −80° C. freezer.
# Preparation of incubation system: an incubation system was prepared as described in the table below.
# 25 μL, of NADPH or phosphate buffered saline was transferred to the incubation system described above, and 2 μL, of 200 μM of the test compound or verapamil was added. The sample with NADPH added was prepared in duplicate; the NADPH negative sample was prepared in single parallel. 30 μL, of suspension was taken at 0.5, 5, 15, 30 and 60 minutes. The reaction system was terminated by adding 180 μL, of acetonitrile containing an internal standard and vortexed for 10 min. […] 100 μL, of the supernatant was transferred to a feeding plate, and 100 μL, of purified water was added. The mixture was well mixed for UPLC-MS/MS analysis.
# The results based on the data were obtained by calculation according to the peak area ratio, and the peak area was detected through an extracted ion chromatogram.
# The slope value (k) was determined by linear fitting of the natural logarithm of drug elimination percentage over time.
# [2] = in vitro; conditions: human, Caco-2, pH 7.4
# Protocol: Drug penetration test: the Transwell culture plate was retrieved from the incubator. […] All samples were prepared in double parallel. The integrity of the cell monolayer membrane after 2 hours of incubation was assessed using leakage of fluorescein; fluorescein stock solution was diluted with HBSS (25 mM HEPES, pH 7.4) to a final concentration of 100 μM. 100 μL of fluorescein solution was added to each well of the upper Transwell plate and 300 μL of HBSS (25 mM HEPES, pH 7.4) was added to each well of the lower receiving plate; after incubation at 37° C. for 30 min, 80 μL of the solution was pipetted from the upper and lower layers of each well to a new 96-well plate.
# The apparent permeability coefficients (Papp, unit: cm/s) of the compounds in Caco-2 cells were calculated from the specific concentrations at the acceptor and donor ends, and the specific calculation formula is as follows: […]
# where VA represents the volume of the acceptor end solution (0.3 mL for Ap→Bl, 0.1 mL for Bl→Ap); Area represents the area of the Transwell-96 well plate (0.143 cm^2); time represents the incubation time (unit: s); [drug]acceptor represents the drug concentration (ratio of peak area to internal standard area) at the acceptor end; [drug]initial, donor represents the drug concentration at the donor end (ratio of peak area to internal standard area).
# The efflux ratio was calculated as follows: […]
# where Papp (B-A) represents the apparent permeability coefficient from base end to top end; Papp (A-B) represents the apparent permeability coefficient from top end to base end.
SMILES,"half-life at 1 μM ([1]; ICR (CD-1), mouse)","microsomal CLint at 1 μM ([1]; ICR (CD-1), mouse)",half-life at 1 μM ([1]; human),microsomal CLint at 1 μM ([1]; human),"Papp A→B at 2 h, 10 μM [2]","Papp B→A at 2 h, 10 μM [2]","efflux ratio at 2 h, 10 μM [2]"
"[2H]C([2H])([2H])N1CCC[C@H]1COc1nc2c(c(N3CCN(C(=O)C(=C)F)[C@@H](CC#N)C3)n1)CCN(c1cccc3cccc(Cl)c13)C2 [Compound 18, 2-((S)-4-(7-(8-chloronaphthalen-1-yl)-2-(((S)-1-(methyl-d3)pyrrolidin-2-yl)methoxy)-5,6,7,8-tetrahydropyrido[3,4-d]pyrimidin-4-yl)-1-(2-fluoroacryloyl)piperazin-2-yl)acetonitrile]",12.3 min,113 µL/min/mg,19.3 min,72 µL/min/mg,,,
C[C@H]1O[C@@H](O[C@H]2[C@@H](O)C[C@H](O[C@H]3[C@@H](O)C[C@H](O[C@H]4CC[C@@]5(C)[C@H](CC[C@@H]6[C@@H]5C[C@@H](O)[C@]5(C)[C@@H](C7=CC(=O)OC7)CC[C@]65O)C4)O[C@@H]3C)O[C@@H]2C)C[C@H](O)[C@@H]1O [Digoxin],,,,,0.25 ×10⁻⁶ cm/s,16.4 ×10⁻⁶ cm/s,65.2
C=CC(=O)N1CCN(c2nc(=O)n(-c3c(C)ccnc3C(C)C)c3nc(-c4c(O)cccc4F)c(F)cc23)[C@@H](C)C1 [AMG510],,,,,0.6 ×10⁻⁶ cm/s,27.4 ×10⁻⁶ cm/s,
"C=C(F)C(=O)N1CCN(c2nc(OC[C@@H]3CCCN3C)nc3c2CCN(c2cccc4cccc(Cl)c24)C3)C[C@@H]1CC#N [MRTX849, reference compound]",10 min,139 µL/min/mg,19.8 min,70.2 µL/min/mg,,,
COCCc1ccc(OCC(O)CNC(C)C)cc1 (stereo not shown) [Metoprolol],,,,,22.6 ×10⁻⁶ cm/s,19.5 ×10⁻⁶ cm/s,0.86

# Source: patent publication US20230257374A1, “NOVEL KRAS G12C PROTEIN INHIBITOR, PREPARATION METHOD THEREFOR, AND USE THEREOF” (INNOVENT BIOLOGICS (SUZHOU) CO., LTD., priority 2019, published 2023)
